tested on: Dirofilaria immitis L1 larvae; assay: Screening against microfilaria (L1 larvae) of Dirofilaria immitis, survival/motility; format: in vivo; details: 72 h, read-out: Ranked D. immitis L1 MED Activity
Method: Example 44. Screening of Compounds Against Microfilaria of Dirofilaria immitis
To evaluate the efficacy of compounds of the disclosure against Dirofilaria immitis, L1 stage larvae were exposed to various concentrations of the compounds to determine survival or paralysis of the larvae. Results are reported as the minimum effective dose (MED), defined as the concentration required to eliminate motility.
To perform the assay, microfilaria of Dirofilaria immitis were added to the wells of a microtiter plate containing buffer and the test compounds in DMSO. Microfilaria exposed to DMSO alone served as controls. An assessment was conducted at 72 hours to determine survival of the microfilaria.

Structure (SMILES) | minimal effective concentration [µM]
CCS(=O)(=O)N1CCOC(CN(C)c2cc(N3CCOC4(CCCCC4)C3)nc(C(F)(F)F)n2)C1 (centres unmarked) [Compound 33, N-((4-(ethylsulfonyl)morpholin-2-yl)methyl)-N-methyl-6-(1-oxa-4-azaspiro[5.5]undecan-4-yl)-2-(trifluoromethyl)pyrimidin-4-amine] | < 10000
CN(CC1CCN(S(C)(=O)=O)C1)c1cc(N2CCCC3(CCCCC3)C2)nc(C(F)(F)F)n1 (centres unmarked) [Compound 9, N-methyl-N-((1-(methylsulfonyl)pyrrolidin-3-yl)methyl)-6-(2-azaspiro[5.5]undecan-2-yl)-2-(trifluoromethyl)pyrimidin-4-amine] | < 30000
CN(CC1CN(S(C)(=O)=O)CCS1)c1cc(N2CCCC3(CCCCC3)C2)nc(C(F)(F)F)n1 (centres unmarked) [Compound 43, N-methyl-N-((4-(methylsulfonyl)thiomorpholin-2-yl)methyl)-6-(2-azaspiro[5.5]undecan-2-yl)-2-(trifluoromethyl)pyrimidin-4-amine] | > 100000
CN(CC1CN(S(=O)(=O)C2CC2)CCO1)c1cc(N2CCOC3(CCCCC3)C2)nc(C(F)(F)F)n1 (centres unmarked) [Compound 32, N-((4-(cyclopropylsulfonyl)morpholin-2-yl)methyl)-N-methyl-6-(1-oxa-4-azaspiro[5.5]undecan-4-yl)-2-(trifluoromethyl)pyrimidin-4-amine] | < 10000
CCN(CC1CN(S(C)(=O)=O)CCO1)c1cc(N2CCOC3(CCCCC3)C2)nc(C(F)(F)F)n1 (centres unmarked) [Compound 20, N-ethyl-N-((4-(methylsulfonyl)morpholin-2-yl)methyl)-6-(1-oxa-4-azaspiro[5.5]undecan-4-yl)-2-(trifluoromethyl)pyrimidin-4-amine] | < 10000
CS(=O)(=O)N1CC2(CC(Nc3cc(N4CCCC5(CCCCC5)C4)nc(C(F)(F)F)n3)C2)C1 [Compound 12, N-(6-(2-azaspiro[5.5]undecan-2-yl)-2-(trifluoromethyl)pyrimidin-4-yl)-2-(methylsulfonyl)-2-azaspiro[3.3]heptan-6-amine] | > 100000
CN(CC1CN(S(C)(=O)=O)CCS1(=O)=O)c1cc(N2CCOC3(CCCCC3)C2)nc(C(F)(F)F)n1 (centres unmarked) [Compound 25, 2-(((6-(1-oxa-4-azaspiro[5.5]undecan-4-yl)-2-(trifluoromethyl)pyrimidin-4-yl)(methyl)amino)methyl)-4-(methylsulfonyl)thiomorpholine 1,1-dioxide] | > 100000
CN(CC1CN(S(C)(=O)=O)CCCO1)c1cc(N2CCCC3(CCCCC3)C2)nc(C(F)(F)F)n1 (centres unmarked) [Compound 35, N-methyl-N-((4-(methylsulfonyl)-1,4-oxazepan-2-yl)methyl)-6-(2-azaspiro[5.5]undecan-2-yl)-2-(trifluoromethyl)pyrimidin-4-amine] | < 10000
CN(CC1CN(S(C)(=O)=O)CCO1)c1cc(N2CCS(=O)(=O)C3(CCCCC3)C2)nc(C(F)(F)F)n1 (centres unmarked) [Compound 27, 4-(6-(methyl((4-(methylsulfonyl)morpholin-2-yl)methyl)amino)-2-(trifluoromethyl)pyrimidin-4-yl)-1-thia-4-azaspiro[5.5]undecane 1,1-dioxide] | < 30000
CN(CC1CN(S(C)(=O)=O)CCS1)c1cc(N2CCSC3(CCCCC3)C2)nc(C(F)(F)F)n1 (centres unmarked) [Compound 30, N-methyl-N-((4-(methylsulfonyl)thiomorpholin-2-yl)methyl)-6-(1-thia-4-azaspiro[5.5]undecan-4-yl)-2-(trifluoromethyl)pyrimidin-4-amine] | < 10000
CS(=O)(=O)N1CCOC(CNc2cc(N3CCCC4(CCCCC4)C3)nc(C(F)(F)F)n2)C1 (centres unmarked) [Compound 15, N-((4-(methylsulfonyl)morpholin-2-yl)methyl)-6-(2-azaspiro[5.5]undecan-2-yl)-2-(trifluoromethyl)pyrimidin-4-amine] | < 10000
CN(c1cc(N2CCCC3(CCCCC3)C2)nc(C(F)(F)F)n1)C1CC2(CC(NS(C)(=O)=O)C2)C1 (centres unmarked) [Compound 7, N-(6-((6-(2-azaspiro[5.5]undecan-2-yl)-2-(trifluoromethyl)pyrimidin-4-yl)(methyl)amino)spiro[3.3]heptan-2-yl)methanesulfonamide] | > 100000
CS(=O)(=O)N1CCOC(CN(Cc2ccccc2)c2cc(N3CCOC4(CCCCC4)C3)nc(C(F)(F)F)n2)C1 (centres unmarked) [Compound 19, N-benzyl-N-((4-(methylsulfonyl)morpholin-2-yl)methyl)-6-(1-oxa-4-azaspiro[5.5]undecan-4-yl)-2-(trifluoromethyl)pyrimidin-4-amine] | > 100000
CN(CC1CN(S(C)(=O)=O)CCS1(=O)=O)c1cc(N2CCCC3(CCCCC3)C2)nc(C(F)(F)F)n1 (centres unmarked) [Compound 42, 2-(((6-(2-azaspiro[5.5]undecan-2-yl)-2-(trifluoromethyl)pyrimidin-4-yl)(methyl)amino)methyl)-4-(methylsulfonyl)thiomorpholine 1,1-dioxide] | > 100000

Reference: patent US20260365642A1, “ANTIPARASITIC COMPOUNDS” (Animol Discovery, Inc., priority 2023, published 2026)
